This note sets out measurements from US20050143392A1, “Chrysogenazine obtained from fungus Penicillium chrysogenum having antibacterial activity” (Council of Scientific & Industrial Research, priority 2003, published 2005).

The test system of this test is Vibrio cholerae MCM B-322. Description: Antibacterial activity, simple disc diffusion (agar diffusion) technique. (In general: In agar diffusion tests the substance spreads into inoculated agar from a disc or well.)

Molecules are shown by their SMILES.

Method: In addition, standard discs of penicillin (10 units/disc), amphicillin (10 mcg/disc) and streptomycin (10 mcg/disc) were used to compare the sensitivity.
Antibacterial activity was determined using a Gram negative bacterial strain, Vibrio cholerae, in a agar diffusion assay, essentially as described by Chabbert, (1963) and Rinehart et.al.,(1981). […] Following an appropriate incubation interval, microbial growth inhibition was visualized and quantified by measuring the clear zone around each disc (Plate 1.). Comparison of this was made with the standard antibiotics (penicillin, amphicillin, and streptomycin).

Turning to `CC(C)=CCc1[nH]c2ccccc2c1C=C1NC(=O)C(C)NC1=O` (centres unmarked) [chrysogenazine, 3,1′-didehydro-3[2″(3′″,3′″-dimethyl-prop-2-enyl)-3″-indolylmethylene]-6-methylpiperazine-2,5-dione], the “antibacterial activity against human pathogen Vibrio cholerae (in words)” value (disc diffusion, 5-30 mcg/disc) was “active”.

As a reminder, the zone of inhibition is the extent of the growth-free halo in a diffusion test. Lower therefore signals little suppression of growth. Molecule `[H]/N=C(/N)N[C@H]1[C@H](O)[C@@H](O)[C@H](O[C@@H]2O[C@@H](C)[C@](O)(C=O)[C@H]2O[C@@H]2O[C@@H](CO)[C@H](O)[C@@H](O)[C@@H]2NC)[C@@H](N/C(N)=N\[H])[C@@H]1O` [streptomycin] gave a zone of inhibition at 10 µg/disc (Vibrio cholerae, MCMB322) of 4 to 5 mm.
